doi:10.1101/2025.08.20.670845v1 (biorxiv, 2025)

Columns and labels:
Experiment in all cases: G-Flamp2 cAMP biosensor fluorescence in HeLa cells expressing the receptor
Format in all cases: cell-based
AgOctβ2R (AgOctβ2) [1] = target: T1, AgOctβ2R (AgOctβ2) (Anopheles gambiae, UniProt F5HKI1, N432C)
T1 sequence (F5HKI1 1-526 N432C): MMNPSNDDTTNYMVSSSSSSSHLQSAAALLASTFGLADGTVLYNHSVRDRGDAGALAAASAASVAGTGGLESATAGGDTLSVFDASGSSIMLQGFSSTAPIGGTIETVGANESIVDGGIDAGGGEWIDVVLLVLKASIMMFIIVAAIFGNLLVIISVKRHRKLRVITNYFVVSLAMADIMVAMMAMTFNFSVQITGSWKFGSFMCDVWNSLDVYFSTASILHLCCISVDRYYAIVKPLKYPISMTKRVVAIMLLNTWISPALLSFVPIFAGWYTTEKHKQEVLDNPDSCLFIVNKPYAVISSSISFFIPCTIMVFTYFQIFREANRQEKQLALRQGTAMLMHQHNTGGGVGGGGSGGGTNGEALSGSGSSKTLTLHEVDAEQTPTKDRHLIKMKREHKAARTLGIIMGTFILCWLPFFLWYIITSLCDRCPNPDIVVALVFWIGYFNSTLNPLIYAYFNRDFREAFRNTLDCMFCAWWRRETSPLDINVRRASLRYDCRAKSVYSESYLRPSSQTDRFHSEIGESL

AmOctβ2 = target: T2, AmOctβ2 (Apis mellifera, UniProt A0A7M7GMY8)
T2 sequence (A0A7M7GMY8 1-438): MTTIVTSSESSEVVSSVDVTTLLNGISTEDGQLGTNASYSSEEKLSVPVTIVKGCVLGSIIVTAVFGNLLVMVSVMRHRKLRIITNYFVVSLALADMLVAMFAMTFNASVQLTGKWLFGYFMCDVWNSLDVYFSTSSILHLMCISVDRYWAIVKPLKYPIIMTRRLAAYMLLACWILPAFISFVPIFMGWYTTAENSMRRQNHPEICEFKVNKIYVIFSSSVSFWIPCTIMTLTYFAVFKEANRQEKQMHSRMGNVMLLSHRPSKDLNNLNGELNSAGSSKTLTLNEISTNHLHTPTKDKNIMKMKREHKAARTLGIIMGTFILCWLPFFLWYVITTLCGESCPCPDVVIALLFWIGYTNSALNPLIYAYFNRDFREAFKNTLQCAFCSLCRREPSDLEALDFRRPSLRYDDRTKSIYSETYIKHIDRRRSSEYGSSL

AgOctβ2R (AgOctβ2) [2] = target: T3, AgOctβ2R (AgOctβ2) (Anopheles gambiae, UniProt F5HKI1, L290E)
T3 sequence (F5HKI1 1-526 L290E): T1 sequence (F5HKI1 1-526 N432C)

AgOctβ2R (AgOctβ2) [3] = target: T4, AgOctβ2R (AgOctβ2) (Anopheles gambiae, UniProt F5HKI1)
T4 sequence (F5HKI1 1-526): T1 sequence (F5HKI1 1-526 N432C)

VdOctβ2 = target: T5, VdOctβ2 (Varroa destructor, UniProt A0A7M7KEY3)
T5 sequence (A0A7M7KEY3 1-439): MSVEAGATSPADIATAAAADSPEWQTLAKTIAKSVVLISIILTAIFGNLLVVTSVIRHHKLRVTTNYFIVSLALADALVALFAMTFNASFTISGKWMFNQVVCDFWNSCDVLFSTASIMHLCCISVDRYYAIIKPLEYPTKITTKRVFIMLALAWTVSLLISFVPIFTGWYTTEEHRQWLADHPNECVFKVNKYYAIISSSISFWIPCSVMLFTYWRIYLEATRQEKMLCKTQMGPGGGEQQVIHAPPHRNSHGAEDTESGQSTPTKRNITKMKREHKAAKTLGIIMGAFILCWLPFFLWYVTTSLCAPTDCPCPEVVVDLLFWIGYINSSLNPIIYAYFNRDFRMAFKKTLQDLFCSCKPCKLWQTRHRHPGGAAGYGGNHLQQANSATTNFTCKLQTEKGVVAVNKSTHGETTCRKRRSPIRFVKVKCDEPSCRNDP

Cc1ccc(/N=C/N(C)/C=N/c2ccc(C)cc2C)c(C)c1 [amitraz]
EC50 (AgOctβ2R (AgOctβ2) [1]): 118 nM
EC50 (AmOctβ2): 12.1 nM
EC50 (AgOctβ2R (AgOctβ2) [2]): 85.4 nM
EC50 (AgOctβ2R (AgOctβ2) [3]): 10.8 nM
EC50 (VdOctβ2): 1.9 nM

NCC(O)c1ccc(O)cc1 (stereo not drawn) [octopamine]
EC50 (AgOctβ2R (AgOctβ2) [1]): 57.3 nM
EC50 (AmOctβ2): 45.6 nM
EC50 (AgOctβ2R (AgOctβ2) [3]): 14.7 nM
EC50 (VdOctβ2): 47.1 nM
